ChEMBL document CHEMBL6120971 (J Med Chem, 2024)
Calls of active or inactive are those of the source. No cut-off for these calls is given here.

Experiments:
[1] = molecular target: T1, Protein cereblon/Hepatocyte growth factor receptor (Homo sapiens, UniProt P08581+Q96SW2); experiment: PROTAC activity at CRBN/c-MET in human MKN-45 cells assessed as induction of c-MET degradation at 6.25 nM incubated for 24 hrs by Western blot analysis; type: cell-based
Target sequence in this assay (P08581 25-1390 limits assumed): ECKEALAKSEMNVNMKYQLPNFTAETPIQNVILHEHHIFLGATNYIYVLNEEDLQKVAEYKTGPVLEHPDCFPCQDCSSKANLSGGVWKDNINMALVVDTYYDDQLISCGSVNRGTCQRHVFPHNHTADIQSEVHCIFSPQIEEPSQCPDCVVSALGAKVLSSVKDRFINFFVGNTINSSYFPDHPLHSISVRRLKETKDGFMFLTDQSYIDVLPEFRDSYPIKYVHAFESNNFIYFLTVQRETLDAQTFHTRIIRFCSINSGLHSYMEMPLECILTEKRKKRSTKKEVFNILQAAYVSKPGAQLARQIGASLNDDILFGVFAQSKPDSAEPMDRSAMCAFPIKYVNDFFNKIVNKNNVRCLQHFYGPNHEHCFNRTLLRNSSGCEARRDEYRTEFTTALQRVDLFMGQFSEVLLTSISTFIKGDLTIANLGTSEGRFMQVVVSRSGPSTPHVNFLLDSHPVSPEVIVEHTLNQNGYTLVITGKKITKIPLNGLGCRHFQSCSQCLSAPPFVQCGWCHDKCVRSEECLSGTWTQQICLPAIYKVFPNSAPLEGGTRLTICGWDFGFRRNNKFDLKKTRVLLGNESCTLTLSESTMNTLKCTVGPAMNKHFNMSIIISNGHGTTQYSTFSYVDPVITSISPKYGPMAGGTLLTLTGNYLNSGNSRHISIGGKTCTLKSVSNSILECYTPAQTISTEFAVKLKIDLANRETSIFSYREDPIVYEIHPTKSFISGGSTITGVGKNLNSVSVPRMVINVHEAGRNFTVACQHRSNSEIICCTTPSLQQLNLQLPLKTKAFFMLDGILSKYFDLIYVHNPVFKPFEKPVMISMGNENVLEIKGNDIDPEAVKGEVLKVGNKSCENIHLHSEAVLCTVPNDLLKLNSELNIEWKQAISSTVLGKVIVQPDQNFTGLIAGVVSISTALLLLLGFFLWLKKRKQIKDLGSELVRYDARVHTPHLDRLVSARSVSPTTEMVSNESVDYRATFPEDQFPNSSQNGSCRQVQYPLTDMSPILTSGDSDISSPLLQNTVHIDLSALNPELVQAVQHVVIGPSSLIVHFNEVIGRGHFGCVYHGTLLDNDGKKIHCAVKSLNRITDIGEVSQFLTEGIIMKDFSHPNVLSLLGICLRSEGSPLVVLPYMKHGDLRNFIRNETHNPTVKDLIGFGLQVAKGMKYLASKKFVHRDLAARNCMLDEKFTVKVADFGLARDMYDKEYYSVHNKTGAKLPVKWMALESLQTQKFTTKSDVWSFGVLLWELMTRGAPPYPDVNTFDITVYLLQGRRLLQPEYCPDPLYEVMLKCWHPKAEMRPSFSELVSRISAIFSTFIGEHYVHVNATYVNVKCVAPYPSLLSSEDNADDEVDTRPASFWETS
Target sequence in this assay (Q96SW2 whole entry partner): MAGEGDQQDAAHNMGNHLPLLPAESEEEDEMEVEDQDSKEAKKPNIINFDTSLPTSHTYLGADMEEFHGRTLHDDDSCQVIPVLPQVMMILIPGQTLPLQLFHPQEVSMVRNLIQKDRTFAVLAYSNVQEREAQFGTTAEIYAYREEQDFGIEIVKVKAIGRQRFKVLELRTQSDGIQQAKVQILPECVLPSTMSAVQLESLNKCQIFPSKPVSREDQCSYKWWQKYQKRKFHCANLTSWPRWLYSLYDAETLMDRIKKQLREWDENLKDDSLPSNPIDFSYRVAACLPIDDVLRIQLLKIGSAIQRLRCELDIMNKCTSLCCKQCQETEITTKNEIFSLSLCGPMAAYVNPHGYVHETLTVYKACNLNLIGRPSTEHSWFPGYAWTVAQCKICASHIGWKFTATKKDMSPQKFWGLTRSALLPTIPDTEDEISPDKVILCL

[2] = molecular target: T1, Protein cereblon/Hepatocyte growth factor receptor; experiment: PROTAC activity at CRBN/c-MET in human MKN-45 cells assessed as induction of c-MET degradation incubated for 24 hrs by Western blot analysis; type: cell-based
Target sequence in this assay (P08581 whole entry): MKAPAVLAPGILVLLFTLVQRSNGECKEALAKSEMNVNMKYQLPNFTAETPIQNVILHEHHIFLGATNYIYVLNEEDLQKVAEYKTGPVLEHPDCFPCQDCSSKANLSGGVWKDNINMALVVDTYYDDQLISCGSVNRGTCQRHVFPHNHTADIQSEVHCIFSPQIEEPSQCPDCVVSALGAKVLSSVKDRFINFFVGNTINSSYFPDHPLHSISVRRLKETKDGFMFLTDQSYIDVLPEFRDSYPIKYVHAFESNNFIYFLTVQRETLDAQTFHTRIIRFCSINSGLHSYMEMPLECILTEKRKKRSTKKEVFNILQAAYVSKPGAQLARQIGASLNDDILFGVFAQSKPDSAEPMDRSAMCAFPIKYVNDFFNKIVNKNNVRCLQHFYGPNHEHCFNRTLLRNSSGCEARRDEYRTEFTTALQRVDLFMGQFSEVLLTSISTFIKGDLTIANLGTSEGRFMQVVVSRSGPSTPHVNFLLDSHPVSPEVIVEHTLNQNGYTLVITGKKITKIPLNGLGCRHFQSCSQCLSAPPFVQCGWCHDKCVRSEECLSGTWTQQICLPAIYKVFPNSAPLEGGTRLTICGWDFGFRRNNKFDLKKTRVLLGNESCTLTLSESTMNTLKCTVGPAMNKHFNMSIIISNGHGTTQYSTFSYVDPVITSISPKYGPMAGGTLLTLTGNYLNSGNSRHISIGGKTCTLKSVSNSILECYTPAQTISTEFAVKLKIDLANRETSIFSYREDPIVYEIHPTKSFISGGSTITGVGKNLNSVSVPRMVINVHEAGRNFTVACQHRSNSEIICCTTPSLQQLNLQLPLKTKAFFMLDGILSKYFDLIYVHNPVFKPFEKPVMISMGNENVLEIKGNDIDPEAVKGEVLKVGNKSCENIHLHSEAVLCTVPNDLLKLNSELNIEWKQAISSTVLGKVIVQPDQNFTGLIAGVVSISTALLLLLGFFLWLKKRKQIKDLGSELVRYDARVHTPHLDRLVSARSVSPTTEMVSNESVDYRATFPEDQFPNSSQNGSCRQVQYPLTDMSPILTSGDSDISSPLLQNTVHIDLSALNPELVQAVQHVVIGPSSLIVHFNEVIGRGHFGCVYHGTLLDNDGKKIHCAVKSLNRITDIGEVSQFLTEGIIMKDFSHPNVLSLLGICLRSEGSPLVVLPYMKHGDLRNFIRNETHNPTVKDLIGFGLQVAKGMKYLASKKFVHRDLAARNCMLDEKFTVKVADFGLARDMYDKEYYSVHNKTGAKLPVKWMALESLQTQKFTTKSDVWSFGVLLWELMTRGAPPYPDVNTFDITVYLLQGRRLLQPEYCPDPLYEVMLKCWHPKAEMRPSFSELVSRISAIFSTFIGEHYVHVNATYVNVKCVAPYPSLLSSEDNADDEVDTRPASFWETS
Target sequence in this assay (Q96SW2 whole entry): as the sequence (Q96SW2 whole entry partner) above

[3] = molecular target: T1, Protein cereblon/Hepatocyte growth factor receptor; experiment: PROTAC activity at CRBN/c-MET in human MKN-45 cells assessed as induction of c-MET degradation by measuring maximal efficacy incubated for 24 hrs by Western blot analysis relative to control; type: cell-based
Target sequence in this assay (P08581 25-1390 limits assumed): as the sequence (P08581 25-1390 limits assumed) above
Target sequence in this assay (Q96SW2 whole entry partner): as the sequence (Q96SW2 whole entry partner) above

[4] = molecular target: T1, Protein cereblon/Hepatocyte growth factor receptor; experiment: PROTAC activity at CRBN/c-MET in human MKN-45 cells assessed as induction of c-MET degradation at 100 nM incubated for 2 to 16 hrs by Western blot analysis; type: cell-based; conditions: time 2-16 hrs
Target sequence in this assay (P08581 25-1390 limits assumed): as the sequence (P08581 25-1390 limits assumed) above
Target sequence in this assay (Q96SW2 whole entry partner): as the sequence (Q96SW2 whole entry partner) above

[5] = molecular target: T1, Protein cereblon/Hepatocyte growth factor receptor; experiment: PROTAC activity at CRBN/c-MET in human PC-9 cells assessed as induction of c-MET degradation at 3.125 to 50 nM incubated for 24 hrs by Western blot analysis; type: cell-based; conditions: dose 3.125-50 nM
Target sequence in this assay (P08581 25-1390 limits assumed): as the sequence (P08581 25-1390 limits assumed) above
Target sequence in this assay (Q96SW2 whole entry partner): as the sequence (Q96SW2 whole entry partner) above

[6] = test system: Hs746T; experiment: Inhibition of c-MET/Akt signaling pathway activation in human Hs746T cells at 12.5 to 200 nM incubated for 24 hrs by Western blot analysis; type: cell-based; conditions: dose 12.5-200 nM
[7] = test system: PC-9; experiment: Inhibition of c-MET/Akt signaling pathway activation in human PC-9 cells at 3.125 to 50 nM incubated for 24 hrs by Western blot analysis; type: cell-based; conditions: dose 3.125-50 nM
[8] = test system: PC-9; experiment: Cell cycle arrest in human PC-9 cells assessed as accumulation of cells at G0/G1 phase incubated for 48 hrs by PI staining based flow cytometric analysis; type: functional; conditions: dose 3.125-50 nM
[9] = test system: PC-9; experiment: Induction of apoptosis in human PC-9 cells at 3.125 to 50 nM incubated for 48 hrs by Annexin V-FITC/PI staining based flow cytometric analysis; type: functional, cell-based; conditions: dose 3.125-50 nM
[10] = molecular target: T1, Protein cereblon/Hepatocyte growth factor receptor; experiment: PROTAC activity at CRBN/c-MET in human NGEC cells assessed as induction of c-MET degradation upto 50 nM incubated for 24 hrs by Western blot analysis; type: cell-based; conditions: NGEC cell
Target sequence in this assay (P08581 25-1390 limits assumed): as the sequence (P08581 25-1390 limits assumed) above
Target sequence in this assay (Q96SW2 whole entry partner): as the sequence (Q96SW2 whole entry partner) above

[11] = molecular target: T1, Protein cereblon/Hepatocyte growth factor receptor; experiment: PROTAC activity at CRBN/c-MET in human A549 cells assessed as induction of c-MET degradation at 12.5 to 200 nM incubated for 24 hrs by Western blot analysis; type: cell-based; conditions: dose 12.5-200 nM
Target sequence in this assay (P08581 25-1390 limits assumed): as the sequence (P08581 25-1390 limits assumed) above
Target sequence in this assay (Q96SW2 whole entry partner): as the sequence (Q96SW2 whole entry partner) above

[12] = molecular target: T1, Protein cereblon/Hepatocyte growth factor receptor; experiment: PROTAC activity at CRBN/c-MET in human MKN-45 cells assessed as induction of c-MET degradation at 100 nM preincubated with capmatinib for 2 hrs followed by compound addition and measured after 24 hrs by Western blot analysis; type: cell-based
[13] = molecular target: T1, Protein cereblon/Hepatocyte growth factor receptor; experiment: PROTAC activity at CRBN/c-MET in human MKN-45 cells assessed as induction of c-MET degradation at 100 nM preincubated with pomalidomide for 2 hrs followed by compound addition and measured after 24 hrs by Western blot analysis; type: cell-based
[14] = molecular target: T1, Protein cereblon/Hepatocyte growth factor receptor; experiment: PROTAC activity at CRBN/c-MET in human MKN-45 cells assessed as induction of c-MET degradation at 100 nM preincubated with MG132 for 2 hrs followed by compound addition and measured after 24 hrs by Western blot analysis; type: cell-based
[15] = molecular target: T1, Protein cereblon/Hepatocyte growth factor receptor; experiment: PROTAC activity at CRBN/c-MET in human MKN-45 cells assessed as induction of c-MET degradation at 100 nM preincubated with MLN4924 for 2 hrs followed by compound addition and measured after 24 hrs by Western blot analysis; type: cell-based
[16] = Tmax in male Sprague-Dawley rat at 10 mg/kg, iv measured after 24 hrs by LC-MS/MS analysis; type: ADME, organism-based; conditions: in vivo
[17] = Cmax in male Sprague-Dawley rat at 10 mg/kg, iv measured after 24 hrs by LC-MS/MS analysis; type: ADME, organism-based; conditions: in vivo
[18] = Downregulation of c-MET protein level in human MKN-45 cells assessed as residual activity at 100 nM incubated for 24 hrs by MS-based quantitative proteomics analysis relative to control; type: functional
[19] = Downregulation of c-MET protein level in human MKN-45 cells assessed as fold change at 100 nM incubated for 24 hrs by MS-based quantitative proteomics analysis relative to control; type: functional
[20] = test system: MKN-45; experiment: Upregulation of HSPG2 protein level in human MKN-45 cells at 100 nM incubated for 24 hrs by MS-based quantitative proteomics analysis; type: functional, cell-based
[21] = test system: MKN-45; experiment: Downregulation of ULK2B protein level in human MKN-45 cells at 100 nM incubated for 24 hrs by MS-based quantitative proteomics analysis; type: functional, cell-based
[22] = molecular target: T1, Protein cereblon/Hepatocyte growth factor receptor; experiment: PROTAC activity at CRBN/c-MET in human MKN-45 cells assessed as induction of c-MET degradation at 6.25 to 100 nM incubated for 24 hrs by Western blot analysis; type: cell-based; conditions: dose 6.25-100 nM
[23] = test system: MKN-45; experiment: Downregulation of SLC7A1 protein level in human MKN-45 cells at 100 nM incubated for 24 hrs by MS-based quantitative proteomics analysis; type: functional, cell-based
[24] = molecular target: Protein cereblon/Importin subunit alpha-1 (Homo sapiens) (UniProt P52292+Q96SW2); experiment: PROTAC activity at CRBN/KPNA2 in human MKN-45 cells assessed as induction of c-MET degradation at 6.25 to 100 nM incubated for 24 hrs by Western blot analysis; type: cell-based; conditions: dose 6.25-100 nM
[25] = test system: MKN-45; experiment: Antitumor activity against human MKN-45 cells xenografted in BALB/c nude mouse assessed as reduction in tumor growth administered orally as once daily dose for 21 days; type: functional; conditions: dose 10-40 mg/kg, route po, time 21.0 day
[26] = test system: MKN-45; experiment: Antitumor activity against human MKN-45 cells xenografted in BALB/c nude mouse assessed as reduction in tumor growth at 10 mg/kg, po administered once daily for 21 days; type: functional, organism-based; conditions: time 21.0 day
[27] = Toxicity in BALB/c nude mouse xenografted with human MKN-45 cells assessed as effect on lung morphology at 10 to 40 mg/kg, po administered once daily for 21 days by H and E staining based analysis; type: organism-based; conditions: in vivo, 504 h, dose 10-40 mg/kg, time 21 day
[28] = Toxicity in BALB/c nude mouse xenografted with human MKN-45 cells assessed as effect on spleen morphology at 10 to 40 mg/kg, po administered once daily for 21 days by H and E staining based analysis; type: organism-based; conditions: in vivo, 504 h, dose 10-40 mg/kg, time 21 day
[29] = Toxicity in BALB/c nude mouse xenografted with human MKN-45 cells assessed as effect on kidney morphology at 10 to 40 mg/kg, po administered once daily for 21 days by H and E staining based analysis; type: organism-based; conditions: in vivo, 504 h, dose 10-40 mg/kg, time 21 day
[30] = Toxicity in BALB/c nude mouse xenografted with human MKN-45 cells assessed as effect on heart morphology at 10 to 40 mg/kg, po administered once daily for 21 days by H and E staining based analysis; type: organism-based; conditions: in vivo, 504 h, dose 10-40 mg/kg, time 21 day
[31] = Cmax in male Sprague-Dawley rat at 10 mg/kg, po measured after 24 hrs by LC-MS/MS analysis; type: ADME, organism-based; conditions: in vivo
[32] = AUC (0 to infinity) in male Sprague-Dawley rat at 10 mg/kg, po measured after 24 hrs by LC-MS/MS analysis; type: ADME, organism-based; conditions: in vivo

O=C1CCC(N2C(=O)c3ccc(N4CCN(CC5CCN(C(=O)c6ccc(-c7cnc8ncc(Cc9ccc%10ncccc%10c9)n8n7)cc6F)CC5)CC4)cc3C2=O)C(=O)N1 (configuration not stated)
Activity [1]: Active
DC50 [2]: 6.21 nM
Emax [3]: 96.8%
Activity [4]: Active
Activity [5]: Active
inhibition [6]: Active
inhibition [7]: Active
Activity [8]: Dose-dependent-effect
Activity [9]: Active; Little Effect Observed
Activity [10]: Weak_effect
Activity [11]: inactive
Activity [12]: inactive
Activity [13]: inactive
Activity [14]: inactive
Activity [15]: inactive
Tmax [16]: 4.8 min
Cmax [17]: 1650 ng/mL
Activity [18]: 3.38%
fold change (FC) [19]: 29.6
Activity [20]: Active
Activity [21]: Active
Activity [22]: Active
Activity [23]: Active
Activity [24]: inactive
Activity [25]: Dose-dependent-effect
Activity [26]: Active; Significant Effect Observed
Activity [27]: Non-toxic
Activity [28]: Non-toxic
Activity [29]: Non-toxic
Activity [30]: Non-toxic
Cmax [31]: 70.7 ng/mL
AUC(0-inf) [32]: 411 ng·h/mL
